Reference: patent US5578634A, “1H-indole-3-acetic acid hydrazide sPLA2 inhibitors” (Eli Lilly and Company, priority 1995, dated 1996)

These molecules were tested against T1, human secreted PLA2 (Homo sapiens, UniProt P14555) (assay: chromogenic assay of recombinant human secreted phospholipase A2 inhibition (Assay Example 1)). Conditions: mean of 3-5 tests; 40° C., 30 minutes, pH 7.5, 405 nanometers; read-out: Inhibition of human secreted PLA2 IC50 ± mean deviation (3-5 tests).
T1 sequence (P14555 21-144): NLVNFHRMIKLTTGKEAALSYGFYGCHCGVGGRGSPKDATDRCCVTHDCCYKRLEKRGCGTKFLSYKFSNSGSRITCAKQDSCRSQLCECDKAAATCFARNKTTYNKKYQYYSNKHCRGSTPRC
Assay type: biochemical
Text: The assay described herein has been adapted for high volume screening using 96 well microtiter plates. A general description of this assay method is found in the article, "Analysis of Human Synovial Fluid Phospholipase A2 on Short Chain Phosphatidylcholine-Mixed Micelles: Development of a Spectrophotometric Assay Suitable for a Microtiterplate Reader", by Laure J. Reynolds, Lori L. […] Reagents, the disclosure of which is incorporated herein by reference. REACTION BUFFER CaCl2.2H20 (1.47 g/L) KCl (7.455 g/L) Bovine Serum Albumin (fatty acid free) (1 g/L) (Sigma A-7030, product of Sigma Chemical Co. St. Louis Mo., USA) TRIS HCl (3.94 g/L) pH 7.5 (adjust with NaOH) ENZYME BUFFER […] 0.2 NaCl Adjust pH to 4.5 with acetic acid DTNB […] RACEMIC DIHEPTANOYL THIO - PC […] TRITON X-100™ prepare at 6.249 mg/ml in reaction buffer to equal […]. REACTION MIXTURE A measured volume of racemic dipheptanoyl thio PC supplied in chloroform at a concentration of 100 mg/ml is taken to dryness and redissolved in 10 millimolar TRITON X-100™ nonionic detergent aqueous solution. Reaction Buffer is added to the solution, then DTNB to give the Reaction Mixture. The reaction mixture thus obtained contains 1 mM diheptanoly thio-PC substrate, 0.29 mM Triton X-100™ detergent, and 0.12 mM DTMB in a buffered aqueous solution at pH 7.5. Assay Procedure: 1. Add 0.2 ml reaction mixture to all wells; 2. Add 10 ul test compound (or solvent blank) to appropriate wells, mix 20 seconds; 3. Add 50 nanograms of sPLA2 (10 microliters) to appropriate wells; 4. Incubate plate at 40° C. for 30 minutes; […] Read absorbance of wells at 405 nanometers with an automatic plate reader. All compounds were tested in triplicate. Typically, compounds were tested at a final concentration of 5 ug/ml. […] Lack of color development at 405 nanometers evidenced inhibition. Compounds initially found to be active were reassayed to confirm their activity and, if sufficiently active, IC50 values were determined. […] In all cases, % inhibition measured at 405 nanometers generated by enzyme reactions containing inhibitors relative to the uninhibited control reactions was determined. Each sample was titrated in triplicate and result values were averaged for plotting and calculation of IC50 values. […] IC50 values were determined at least three times for each compound tested.
Molecule `Cc1c(CC(=O)NN)c2cc(-c3ccccc3)ccc2n1Cc1cccc(OCc2ccccc2)c1` [Example 58, 1-[(3-Benzyloxyphenyl)methyl]-2-methyl-5-phenyl-1H-indole-3-acetic acid hydrazide] has an IC50 of 2210 ± 1160 nM.
Work on `Cc1ccc2c(c1)c(CC(=O)NN)c(C)n2Cc1ccccc1` [Example 59, 2,5-Dimethyl-1-(phenylmethyl)-1H-indole-3-acetic acid hydrazide] yielded an IC50 of 760 ± 350 nM.
`COc1ccc2c(c1)c(CC(=O)NN)c(C)n2CCCCc1ccccc1` [Example 42, 5-Methoxy-2-methyl-1-(4-phenylbutyl)-1H-indole-3-acetic acid hydrazide] was tested, and the IC50 was 16500 ± 3580 nM.
Molecule “5-Methoxy-2-methyl-1-(phenylmethyl)-1H-indole-3-butanoic acid hydrazide [Example 67]” has an IC50 of 24200 ± 10700 nM.
Work on `COc1ccc2c(c1)c(CC(=O)NN)c(C)n2Cc1ccccc1Cl` [Example 17, 1-(2-Chlorophenylmethyl)-5-methoxy-2-methyl-1H-indole-3-acetic acid hydrazide] yielded an IC50 of 1710 ± 240 nM.
In the case of `COc1ccc(Cn2c(C)c(CC(=O)NN)c3cc(OC)ccc32)cc1` [Example 28, 5-Methoxy-1-[(4-methoxyphenyl)methyl]-2-methyl-1H-indole-3-acetic acid hydrazide], the IC50 is reported as 11700 ± 4040 nM.
Molecule `CCCCCCCCCCn1c(C)c(CC(=O)NN)c2cc(OC)ccc21` [Example 14, 1-Decyl-5-methoxy-2-methyl-1H-indole-3-acetic acid hydrazide] has an IC50 of 7080 ± 1610 nM.
`COc1ccc2c(c1)c(CC(=O)NN)c(C)n2Cc1cc(Cl)ccc1Cl` [Example 20, 1-(2,5-Dichlorophenylmethyl)-5-methoxy-2-methyl-1H-indole-3-acetic acid hydrazide] gave an IC50 of 9390 ± 2300 nM.
Molecule `COc1cccc(Cn2c(C)c(CC(=O)NN)c3cc(OC)ccc32)c1` [Example 27, 5-Methoxy-1-[(3-methoxyphenyl)methyl]-2-methyl-1H-indole-3-acetic acid hydrazide] has an IC50 of 2180 ± 510 nM.
In the case of `COc1ccc2c(c1)c(CC(=O)NN)cn2Cc1ccccc1-c1ccccc1` [Example 12, 1-([1,1'-Biphenyl]-2-ylmethyl)-5-methoxy-1H-indole-3-acetic acid hydrazide], the IC50 is reported as 5490 ± 4290 nM.
`COc1ccc2c(c1)c(CC(=O)NN)c([S+](C)[O-])n2Cc1ccccc1` (stereo not drawn) [Example 46, 5-Methoxy-2-methylsulfinyl-1-(phenylmethyl)-1H-indole-3-acetic acid hydrazide] showed an IC50 of 46000 ± 24700 nM.
`COc1ccc2c(c1)c(CC(=O)NN)c(C)n2Cc1cccc(C)c1` [Example 22, 5-Methoxy-1-[(3-methylphenyl)methyl]-2-methyl-1H-indole-3-acetic acid hydrazide] showed an IC50 of 1540 ± 670 nM.
`COc1ccc2c(c1)c(CC(=O)NN)c(C)n2Cc1cccnc1` [Example 38, 5-Methoxy-2-methyl-1-[(3-pyridyl)methyl]-1H-indole-3-acetic acid hydrazide] was tested, and the IC50 was 84200 ± 19400 nM.
In the case of `Cc1c(CC(=O)NN)c2cc(Br)ccc2n1Cc1cccc(-c2ccccc2)c1` [Example 51, 1-([1,1'-biphenyl]-3-ylmethyl)-5-bromo-2-methyl-1H-indole-3-acetic acid hydrazide], the IC50 is reported as 1340 ± 440 nM.
For `COc1ccc2c(c1)c(CC(=O)NN)c(C)n2Cc1ccc(Cl)cc1` [Example 19, 1-(4-Chlorophenylmethyl)-5-methoxy-2-methyl-1H-indole-3-acetic acid hydrazide], the IC50 was 9280 ± 2060 nM.
`CCc1c(CC(=O)NN)c2cc(C)ccc2n1Cc1ccccc1` [Example 6, 2-Ethyl-5-methyl-1-(phenylmethyl)-1H-indole-3-acetic acid hydrazide] showed an IC50 of 670 ± 240 nM.
`Cc1c(CC(=O)NN)c2cc(OCCCC(=O)O)ccc2n1Cc1ccccc1` [Example 71, 4-[[3-(2-Hydrazino-2-oxoethyl)-2-methyl-1-(phenylmethyl)-1H-indol-5-yl]oxy]butanoic acid] gave an IC50 of 860 nM.
Work on `Cc1c(CC(=O)NN)c2cc(C(=O)NN)ccc2n1Cc1cccc(Cl)c1` [Example 69, 1-[(3-Chlorophenyl)methyl]-5-hydrazinocarbonyl-2-methyl-1H -indole-3-acetic acid hydrazide] yielded an IC50 of 2700 ± 380 nM.
Work on `COc1ccc2c(c1)c(CC(=O)NN)c(C)n2Cc1ccc(OCc2ccccc2)cc1` [Example 32, 1-[(4-Benzyloxyphenyl)methyl]-5-methoxy-2-methyl-1H-indole-3-acetic acid hydrazide] yielded an IC50 of 2280 ± 570 nM.
Molecule `Cc1c(CC(=O)NN)c2cc(-c3ccccc3)ccc2n1Cc1ccccc1` [Example 56, 2-Methyl-5-phenyl-1-(phenylmethyl)-1H-indole-3-acetic acid hydrazide] has an IC50 of 860 ± 200 nM.
Molecule `CCc1c(CC(=O)NN)c2cc(F)ccc2n1Cc1ccccc1` [Example 7, 2-Ethyl-5-fluoro-1-(phenylmethyl)-1H-indole-3-acetic acid hydrazide] has an IC50 of 1520 ± 560 nM.
For `CCOc1ccc2c(c1)c(CC(=O)NN)c(C)n2Cc1ccccc1` [Example 1, 5-Ethoxy-2-methyl-1-(phenylmethyl)-1H-indole-3-acetic acid hydrazide], the IC50 was 800 ± 250 nM.
Molecule `Cc1c(CC(=O)NN)c2cc(Br)ccc2n1Cc1ccccc1` [Example 50, 5-Bromo-2-methyl-1-(phenylmethyl)-1H-indole-3-acetic acid hydrazide] has an IC50 of 1020 ± 430 nM.
In the case of `Cc1c(CC(=O)NN)c2ccc(Cl)cc2n1Cc1ccccc1` [Example 8, 6-Chloro-2-methyl-1-(phenylmethyl)-1H-indole-3-acetic acid hydrazide], the IC50 is reported as 1140 ± 440 nM.
`COc1ccc2c(c1)c(CC(=O)NN)c(SC)n2Cc1ccccc1` [Example 45, 5-Methoxy-2-methylthio-1-(phenylmethyl)-1H-indole-3-acetic acid hydrazide] showed an IC50 of 600 ± 130 nM.
For `CCCCCCCCCCCCCCCCCCn1c(C)c(CC(=O)NN)c2cc(OC)ccc21` [Example 15, 5-Methoxy-2-methyl-1-octadecyl-1H-indole-3-acetic acid hydrazide], the IC50 was greater than 100000 nM.
In the case of `Cc1c(CC(=O)NN)c2c(Br)cccc2n1Cc1ccccc1` [Example 53, 4-Bromo-2-methyl-1-(phenylmethyl)-1H-indole-3-acetic acid hydrazide], the IC50 is reported as 2060 ± 940 nM.
With `Cc1c(CC(=O)NN)c2c(-c3ccccc3)cccc2n1Cc1ccccc1` [Example 55, 2-Methyl-4-phenyl-1-(phenylmethyl)-1H-indole-3-acetic acid hydrazide] the IC50 was 2060 ± 940 nM.
`COc1ccc2c(c1)c(CC(=O)NN)c(C)n2Cc1cccc(N)c1` [Example 35, 1-[(3-Aminophenyl)methyl]-5-methoxy-2-methyl-1H-indole-3-acetic acid hydrazide] showed an IC50 of 7120 ± 4890 nM.
`COc1ccc2c(c1)c(CC(=O)NN)c(C)n2Cc1ccccn1` [Example 37, 5-Methoxy-2-methyl-1-[(2-pyridyl)methyl]-1H-indole-3-acetic acid hydrazide] was tested, and the IC50 was 27200 ± 7890 nM.
`NNC(=O)Cc1cn(Cc2ccccc2)c2ccc(OCc3ccccc3)cc12` [Example 9, 5-Benzyloxy-1-(phenylmethyl)-1H-indole-3-acetic acid hydrazide] showed an IC50 of 2310 ± 650 nM.
`Cc1c(CC(=O)NN)c2ccc(Br)cc2n1Cc1ccccc1` [Example 54, 6-Bromo-2-methyl-1-(phenylmethyl)-1H-indole-3-acetic acid hydrazide] was tested, and the IC50 was 1020 ± 260 nM.
For `COc1ccc2c(c1)c(CC(=O)NN)c(C)n2Cc1cccc([N+](=O)[O-])c1` [Example 34, 5-Methoxy-2-methyl-1-[(3-nitrophenyl)methyl]-1H-indole-3-acetic acid hydrazide], the IC50 was 15200 ± 770 nM.
